The target of series [1] is T1, Recombinant cruzain (Trypanosoma cruzi, UniProt P25779).
T1 construct: consisting of the catalytic domain of cruzipain but excluding the carboxy-terminal extension; made in house
Description: Enzyme kinetic assay for cruzain (Z-FR-AMC hydrolysis). In kind it is biochemical. Particulars: pKi = -log10(Ki/M); uncertainty in parentheses; 37°C, pH 5.5. On the procedure: Recombinant cruzain, consisting of the catalytic domain of cruzipain but excluding the carboxy-terminal extension, was expressed and purified as previously described. Enzyme kinetic assays for cruzain were carried out at 37°C in 200 μL of a solution containing 100 mM acetate buffer pH 5.5, 300 mM NaCl, 5 mM dithiothreitol (DTT), 5% v/v dimethyl sulfoxide (DMSO), 0.01% v/v Triton X-100 and 0.15 nM cruzain, using Corning® 96-well black flat bottom microplates. (S)-N-(1-((cyanomethyl)amino)-1-oxo-3-phenylpropan-2-yl)benzamide was used as a positive control. The rate of the reaction was monitored using a Biotek Synergy HT plate reader through the fluorescence emission at 460 nm (excitation at 355 nm) due to the hydrolysis of the substrate Z-Phe-Arg-7-amido-4-methylcoumarin (Z-FR-AMC, Sigma-Aldrich). The enzyme stock aliquot was rapidly thawed at 37°C and kept on ice until activation, in which it was incubated for 20 min. in the assay buffer (100 mM acetate pH 5.5 and 5 mM DTT) followed by additional 2 min. incubation with inhibitors before the reaction was started by the addition of the substrate.
Visual inspection and a pre-reading of plate wells were performed to check for possible precipitation and background fluorescence, respectively. Fluorescence emission spectra were also recorded for all inhibitors, using the same excitation wavelength (355 nm) as for the fluorometric assay. […] The reaction was started by the addition of varying concentrations of the substrate and the wells monitored for a total of 5 minutes of reaction. The initial velocities of the substrate hydrolysis under first-order reaction were calculated by Gen5 Biotek software based on the linear-regression coefficient from the data fitting of Relative Fluorescence Unit (mRFU) as a function of time (min).
Each experiment was performed in duplicates for each compound being tested. A control measurement in absence of inhibitor (KM) was carried out for each setup plate and the kinetic affinity constants (Ki) were calculated from non-linear fit of Michaelis-Menten curves to the data of initial velocities as a function of eight different concentrations of the substrate Z-FR-AMC from 30.0–0.8 μM. All inhibitors were evaluated in two different concentrations, which were chosen based on a previous screening (percentage of inhibition) at 1.7 μM substrate (~KM). SigmaPlot (v. 10.0) was employed for the non-linear fit and the kinetic parameters determination.

The subject of series [2] is Cathepsin K. To be noted: pIC50 = -log10(IC50/M); cited from earlier work.
Series [3] concerns the target T2, cathepsin L (Homo sapiens, UniProt P07711). As to the kind of experiment: Enzyme kinetic assay for cathepsin L. In kind it is biochemical. To be noted: pKi = -log10(Ki/M); uncertainty in parentheses; 37°C, pH 5.5. On the procedure: Enzyme kinetic assays for cathepsin L were performed in a similar manner to the cruzain assays at 37°C in 200 μL of a solution containing 100 mM acetate buffer pH 5.5, 300 mM NaCl, 1 mM dithiothreitol (DTT), 1 mM EDTA, 5% v/v dimethyl sulfoxide (DMSO), 0.01% v/v Triton X-100 and 0.30 nM cathepsin L, using Corning® 96-well black flat bottom microplates. Using the QFRET technology, compounds 9–12 were tested for inhibition of cathepsin L-mediated cleavage of a synthetic peptide Z-Phe-Arg-AMC (10 μM final concentration) using 0.1 nM [final] human Cat L (prepared in-house). […]

Series [4] concerns Cathepsin S. To be noted: pIC50 = -log10(IC50/M); cited from earlier work.
For series [5], the system named is LLC-MK2 cells. Description: Cytotoxicity in LLC-MK2 cells. The format is cell-based, monkey. Particulars: % cytotoxicity in LLC-MK2 cells at 128 μM; standard deviation (N = 6) in parentheses. The source says:
Table 2 Anti-trypanosomal activity of cysteine protease inhibitors. | column: Cytotox LLC-MK2 ^c

The target in series [6] is T2, cathepsin L. Particulars: pIC50 = -log10(IC50/M); cited from earlier work.
In series [7] the test system is amastigote forms of T. cruzi CL Brener strain. Description: Anti-trypanosomal activity assay (beta-galactosidase reporter, infected LLC-MK2 cells). In kind it is cell-based. To be noted: Trypanosoma cruzi. On the procedure: Assays were performed against amastigote forms of T. cruzi CL Brener strain, which expresses β-galactosidase derived from Escherichia coli, infecting monkey kidney (LLC-MK2) cells as described. Previously, LLC-MK2 host cells were cultivated in 96-wells microplates (10^3 cells/well). […] Then, the wells were washed with PBS to remove the extracellular parasites and the tested compounds were added in the final concentrations of 0.031, 0.125, 0.5, 2.0, 8.0, 32.0, 128 and 512 μM. After this, the microplates were incubated at 37°C, in CO2 atmosphere (5%), for 5 days. Then, 10 μL of FluoReporter lacZ/Galactosidase Quantitation Kit (Molecular Probes, ThermoFisher Scientific) were added and after 30 minutes the fluorometric reaction was read in a microplate reader (Synergy H1, Biotek) at 386 nm excitation and 448 nm emission. The metabolism of the substrate is directly correlated with the amount of β-galactosidase activity and, therefore, the number amastigotes. The percentage of activity for each compound was determined from the following formula: %activity = 100 –{[(X-PC)/(NC-PC)]x100}, where the optical density values of the samples (X), the positive controls (PC) and negative controls (NC) were used. Culture medium alone was used as positive control (PC) and cells with medium and 0.6% DMSO (v/v) as negative control (NC). All assays were performed in triplicate with two independent experiments.

Series [8] concerns Cathepsin B. To be noted: pIC50 = -log10(IC50/M); cited from earlier work.
Series [9] deals with Balb/C 3T3 clone A31 cells. Description: MTT colorimetric cytotoxicity assay. In kind it is cell-based, mouse. Particulars: % cytotoxicity in Balb/C 3T3 clone A31 cells at 128 μM; standard deviation (N = 8) in parentheses. On the procedure: Inhibition values were determined in the cell-based assay as previously described. […] Cells were plated at a concentration of 10^5 cell/mL in 96-well plates and incubated for 24 h. […] The cell viability was assessed during 24, 48 and 72 h using the MTT (Sigma-Aldrich) reagent, with an incubation time of 3 h. Formazan crystals were dissolved using a solubility reagent composed of DMSO, glacial acetic acid and […] for 1 h. The readout was obtained using Biotek Synergy HT plate reader at 570 nm. Benznidazole was used as control. This assay was done in quadruplicate in two independent experiments. Statistical analyses were made in GraphPad Prism 5. Concentration-response curves were fitted for the best compounds and the statistical parameters are provided with the graphs in S9 Fig in the supplemental material.
For orientation: Formazan colour is commonly taken as a measure of viable cells.

Marks after values point to notes of the source that are not given here.

T2 sequence (P07711 114-333, species assumed): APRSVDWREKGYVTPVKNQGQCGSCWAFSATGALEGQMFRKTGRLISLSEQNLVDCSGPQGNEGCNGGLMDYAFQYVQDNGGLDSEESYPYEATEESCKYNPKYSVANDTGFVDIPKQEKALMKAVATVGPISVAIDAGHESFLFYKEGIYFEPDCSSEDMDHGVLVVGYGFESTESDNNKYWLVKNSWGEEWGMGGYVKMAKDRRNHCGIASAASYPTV
T1 sequence (P25779 123-337 limits assumed): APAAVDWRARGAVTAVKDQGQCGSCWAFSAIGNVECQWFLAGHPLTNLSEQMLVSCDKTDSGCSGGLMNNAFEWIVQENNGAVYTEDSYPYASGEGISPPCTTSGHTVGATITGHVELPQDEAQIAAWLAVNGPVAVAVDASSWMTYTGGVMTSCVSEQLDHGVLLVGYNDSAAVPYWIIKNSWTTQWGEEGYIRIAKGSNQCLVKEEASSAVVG

A word on the Ki: it is a dissociation constant, usually derived from enzyme kinetics or from competition with a known ligand. As to `CC(C)(F)C[C@H](N[C@@H](c1ccc(-c2ccc(S(C)(=O)=O)cc2)cc1)C(F)(F)F)C(=O)NC1(C#N)CC1` [Compound 4, odanacatib], the Ki in series [1] is 0.126 µM; in series [3], 6.31 µM. For the same compound, the “Cathepsin K pIC50” value in series [2] was 9.7 ^d. Besides, the “Cathepsin S pIC50” value in series [4] is 7.2 ^d. Further, in series [5], the “Cytotox LLC-MK2” value is on record as 31 (4) %. Also, the “Cathepsin L pIC50” value in series [6] is 5.5 ^d. Moreover, the EC50 in series [7] (120 h, pEC50 = -log10(EC50/M), T. cruzi CL Brener amastigotes in LLC-MK2 cells, 5 days, read-out: pEC50 (anti-trypanosomal activity) (converted)) is 2.51 µM. In addition, in series [7] (LLC-MK2, 0.125 μM, standard deviation (N = 6) in parentheses, read-out: %activity at 0.125 μM), the inhibition at 0.125 µM stood at 22%. Also, the inhibition at 0.5 µM in series [7] (LLC-MK2, 0.5 μM, standard deviation (N = 6) in parentheses, read-out: %activity at 0.5 μM) is 28%. Also, the inhibition at 2 µM in series [7] (LLC-MK2, 2 μM, standard deviation (N = 6) in parentheses, read-out: %activity at 2 μM) worked out at 36%. In addition, the inhibition at 8 µM in series [7] (LLC-MK2, 8 μM, standard deviation (N = 6) in parentheses, read-out: %activity at 8 μM) worked out at 44%. In series [8], the “Cathepsin B pIC50” value was 6.0 ^d. In [9], the “Cytotox Balb/C 3TC” value is reported as 27 (15) %.
